Measurements taken from US20220023269A1, “Methods Of Treating Diabetes In Severe Insulin-Resistant Diabetic Subjects” (Balticgruppen Bio AB, priority 2018, published 2022).

Experiments:
hIAPPtg islets = experiment: Ex vivo islet amyloid assay; type: cell-based, mouse; details: 22 mM glucose
Experimental: Islets amyloid was quantification was done on pancreatic tissues isolated from hIAPPtg mice on HFD for 16 weeks (n=7 mice/n=69 islets) and hIAPPtg mice on HFD for 9 weeks then switched to test material-HFD (2 mg/g) for 7 weeks (n=5 mice/n=48 islets). Isolated pancreases was direct frozen, sectioned, and amyloid content quantified by staining with Thioflavin-S as previously described (Reference 2). For ex vivo analyses, islets were isolated by collagenase digestion of the pancreas (Reference 1) and cultured in RPMI medium 1640 (GIBCO #11879-0) supplemented with 11.1 or 22.2 mM glucose (GIBCO #A24940-01), 1% fetal bovine serum (GIBCO #10500), 50 U; μg/ml Pen/Strep (Gibco #15140-122), 10 mM Hepes (Umeå University, Laboratory medicine), 1 mM sodium pyruvate (GIBCO #11360-039) and 0.1% 2-Mercaptoethanol (Sigma #M3148). 0, 2.5, 5.0, and 10 μM test material were added from day 0 of culture. For assessing the effect of autophagy inhibition, 3-Methyladenine (3-MA, Aldrich #M9281), 5 μM, was added from day 0 of culture in combination with test material, 5 μM. The control contained DMSO 1:2000. Medium and compounds were changed every second day. After 92 hours of treatment islets were embedded, sectioned and amyloid content quantified by staining with Thioflavin-S as previously described (Reference 2). A minimum of 3 independent experiments was evaluated.

[1] = Pharmacokinetics in mice and rats (plasma, liver, brain); type: in vivo; details: rodents
Experimental: Pharmacokinetics of the test material in C57BL/6JBomTac mice and NTac:SD rats were determined via UHPLC-ESI Triple Quad MSMS in plasma from non-fasted animals. The test material (40 mg/kg test material) was administered via oral gavage and 4-, 8-, 12- and 24-hours after administration blood was collected. Test material levels were determined in liver and brain from non-fasted Crl:CD (SD) rats administered the test material (40 mg/kg test material), once daily for 3 weeks, via oral gavage. The test material was extracted in acetonitrile and levels determined using UHPLC-ESI Triple Quad MSMS.

[2] = tested on: AMPK in Wi-38 human lung fibroblast cells; experiment: AMPK activation assay in Wi-38 cells (immunoblot); type: cell-based; details: 2.5, 5 or 10 μM, 16 hours; dose-dependent
Experimental: (§1) All cell lines were lysed in 0.1 M Tris-HCl, pH 6.8, 2% SDS, 10 mM sodium fluoride (SIGMA #S7920), 10 mM β-glycerophosphate (SIGMA #G6376), and 1 mM sodium vanadate (SIGMA #72060) and supernatant collected after 1 minute at 14,000 rpm. Islets (human and mouse) were lysed in 0.1 M Tris-HCl, pH 6.8, 2% SDS, protease inhibitor (Roche #04 693 124 001) and phosphatase inhibitor (Roche #04 906 837 001). Right calf muscle, heart, iWAT, and interscapular BAT was crushed in a pestle using liquid nitrogen and homogenised in ice cold RIPA buffer (150 mM sodium chloride (SIGMA #S7653), 1.0% NP40 (USB), 0.5% sodium deoxycholate (SIGMA #D6750), 0.1% SDS, 50 mM Tris pH 8.0, 20 mM sodium pyrophosphate (SIGMA #71515), 10 mM sodium fluoride, 10 mM β-glycerolphosphate, 1 mM sodium vanadate and protease inhibitor cocktail (Roche #04693124001), 1 tablet/10 ml lysis buffer). The supernatant was collected after 2 min at 14,000 rpm. This procedure was repeated until all fat was eliminated and the supernatant was clear, at 4° C. Samples were analysed on 4-15% polyacrylamide gels. Values were normalised toward AMPKα, β-Actin, GAPDH or the respective non-phosphorylated counterpart.
(§2) Table 3 contains origin of cell lines, growth conditions and settings for activation of AMPK via the test material. […]

[3] = tested on: AMPK in rat insulinoma INS-1 cells; experiment: AMPK activation in INS-1 insulinoma cells; type: cell-based; details: 2.5, 5, 10 μM, 2 hours
Experimental: as §1, §2

In the case of `O=C(Nc1nc(=O)n(Cc2ccc(Cl)cc2)s1)c1ccc(Cl)cc1` [test material, 4-chloro-N-[2-[(4-chlorophenyl)methyl]-3-oxo-1,2,4-thiadiazol-5-yl]benzamide], the “preventive effect on amyloid formation in presence of autophagy inhibitor 3-MA” value (hIAPPtg islets; 5.0 μM test material + 5.0 μM 3-MA) is reported as “significantly attenuated”, the “amyloid formation (Thio-S+ deposits)” value (hIAPPtg islets; 2.5, 5.0, 10 μM, dose-dependent) is reported as “attenuated amyloid formation” and the blood-brain barrier crossing [1] is reported as “does not cross the blood-brain barrier”. The oral availability [1] was “orally available”, the plasma half-life [1] was “long” and the “levels of pAMPK (p-T172)” value [2] was “increased”. The “p-S79 ACC (pACC) levels” value [2] was “increased” and the pAMPKα [3] was “directly increased pAMPKα”.
